US8877741B2, “Pyrrolidine derivatives, pharmaceutical compositions and uses thereof” (Boehringer Ingelheim International GmbH, priority 2013, dated 2014)
pIC50: −log10 of the molar value.

The molecules below were run against human ACC2 (Homo sapiens (Human), UniProt O00763) (assay: ACC2 assay, spectrophotometric 384 well assay (NADH-linked kinetic method)). Conditions: human ACC2 construct lacking the 128 N-terminal amino acids; coupled lactate dehydrogenase/pyruvate kinase reaction, 340 nm, 25° C.
human ACC2, sequence (O00763 129-2458): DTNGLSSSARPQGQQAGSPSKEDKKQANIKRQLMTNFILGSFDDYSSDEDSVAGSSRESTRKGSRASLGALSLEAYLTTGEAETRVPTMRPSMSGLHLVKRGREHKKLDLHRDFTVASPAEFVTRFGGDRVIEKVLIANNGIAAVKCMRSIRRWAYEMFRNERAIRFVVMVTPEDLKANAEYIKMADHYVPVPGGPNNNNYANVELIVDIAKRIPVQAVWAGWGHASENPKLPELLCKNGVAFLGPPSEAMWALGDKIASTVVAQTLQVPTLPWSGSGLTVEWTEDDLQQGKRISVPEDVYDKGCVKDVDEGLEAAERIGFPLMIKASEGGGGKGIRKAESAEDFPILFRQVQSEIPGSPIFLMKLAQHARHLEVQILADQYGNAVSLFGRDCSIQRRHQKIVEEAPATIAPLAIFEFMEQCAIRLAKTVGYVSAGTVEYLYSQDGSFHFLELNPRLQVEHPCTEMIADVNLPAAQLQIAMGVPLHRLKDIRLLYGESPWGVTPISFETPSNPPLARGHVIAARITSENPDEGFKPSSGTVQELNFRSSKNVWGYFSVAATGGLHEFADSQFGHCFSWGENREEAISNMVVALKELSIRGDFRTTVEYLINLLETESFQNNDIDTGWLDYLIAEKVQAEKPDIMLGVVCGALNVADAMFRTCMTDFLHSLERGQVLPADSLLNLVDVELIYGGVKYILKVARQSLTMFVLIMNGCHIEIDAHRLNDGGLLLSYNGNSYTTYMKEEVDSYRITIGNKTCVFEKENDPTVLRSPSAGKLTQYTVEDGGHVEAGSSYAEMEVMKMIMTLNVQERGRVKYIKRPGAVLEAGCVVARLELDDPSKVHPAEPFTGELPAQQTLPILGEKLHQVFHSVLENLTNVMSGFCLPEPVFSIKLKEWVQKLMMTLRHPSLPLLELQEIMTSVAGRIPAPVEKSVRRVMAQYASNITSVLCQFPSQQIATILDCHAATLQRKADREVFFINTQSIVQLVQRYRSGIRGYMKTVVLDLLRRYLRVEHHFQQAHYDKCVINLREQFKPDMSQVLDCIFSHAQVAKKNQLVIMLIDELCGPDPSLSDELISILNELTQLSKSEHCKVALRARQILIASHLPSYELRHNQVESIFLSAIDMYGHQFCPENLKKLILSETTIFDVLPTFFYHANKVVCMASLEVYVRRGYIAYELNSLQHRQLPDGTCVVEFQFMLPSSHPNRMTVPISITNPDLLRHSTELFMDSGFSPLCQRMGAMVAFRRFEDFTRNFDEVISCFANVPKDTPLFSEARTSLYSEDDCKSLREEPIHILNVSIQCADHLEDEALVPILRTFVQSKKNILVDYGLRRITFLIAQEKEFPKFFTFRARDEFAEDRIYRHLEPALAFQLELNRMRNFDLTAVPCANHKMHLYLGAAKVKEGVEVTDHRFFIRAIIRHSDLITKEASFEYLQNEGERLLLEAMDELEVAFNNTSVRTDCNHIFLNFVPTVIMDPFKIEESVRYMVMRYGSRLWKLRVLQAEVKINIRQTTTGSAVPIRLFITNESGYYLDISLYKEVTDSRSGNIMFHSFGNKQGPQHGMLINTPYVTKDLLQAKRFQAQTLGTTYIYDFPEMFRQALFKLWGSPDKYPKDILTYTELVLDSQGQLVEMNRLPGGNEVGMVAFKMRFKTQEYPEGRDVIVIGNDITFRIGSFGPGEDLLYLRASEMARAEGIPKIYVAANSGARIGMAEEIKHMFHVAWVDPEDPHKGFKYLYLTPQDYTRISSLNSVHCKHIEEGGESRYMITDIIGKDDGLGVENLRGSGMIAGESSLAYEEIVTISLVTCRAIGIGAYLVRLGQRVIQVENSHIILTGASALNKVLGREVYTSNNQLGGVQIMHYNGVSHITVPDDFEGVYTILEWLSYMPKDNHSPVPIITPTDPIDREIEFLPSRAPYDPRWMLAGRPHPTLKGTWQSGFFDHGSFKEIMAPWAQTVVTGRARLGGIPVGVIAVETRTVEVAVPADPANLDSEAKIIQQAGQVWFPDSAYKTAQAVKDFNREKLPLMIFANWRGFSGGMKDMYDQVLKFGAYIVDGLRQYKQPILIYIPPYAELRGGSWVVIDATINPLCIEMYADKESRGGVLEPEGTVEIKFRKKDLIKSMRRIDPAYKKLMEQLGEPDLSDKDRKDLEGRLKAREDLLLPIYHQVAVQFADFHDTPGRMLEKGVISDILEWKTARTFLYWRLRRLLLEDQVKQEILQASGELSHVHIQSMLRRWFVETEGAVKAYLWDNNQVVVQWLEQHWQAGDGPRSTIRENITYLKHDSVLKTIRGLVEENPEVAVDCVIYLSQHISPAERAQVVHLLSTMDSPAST
Type: biochemical
Procedure, shortened: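 ADP formation was monitored as NADH consumption at 340 nm for 15 min at 25 °C, using baculovirus-expressed human ACC2 missing its first 128 amino acids, with 500 μM ATP and 2000 μM each of acetyl-CoA and NADH (final). IC50 was fitted by non-linear regression on low-control-subtracted slopes.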

SMILES	pIC50
CCCOc1ccc(N2CCC(Oc3ccc([C@H](C)NC(C)=O)cc3)C2)c(C)n1 (stereo partly shown) [Example 1.37]	6.44
CC(=O)N[C@@H](C)c1ccc(OC2CCN(c3ccc(OCC(C)(C)F)cn3)C2)cc1 (stereo partly shown) [Example 1.87]	6.17
CC(=O)N[C@@H](C)c1ccc(O[C@@H]2CCN(c3ccnc(N4CCC4)c3Cl)C2)cc1 [Example 1.131]	7.12
CC(=O)N[C@@H](C)c1ccc(O[C@@H]2CCN(c3ccnc(N4CCC(F)(F)C4)c3Cl)C2)cc1 [Example 1.132]	7.39
CCC(=O)Nc1nc(C)c(C(=O)N[C@@H](C)c2ccc(O[C@@H]3CCN(c4ccc(OC[C@@H]5CC5(F)F)cn4)C3)cc2)s1 [Example 1.145]	6.00
C[C@H](NC(=O)N(C)C)c1ccc(OC2CCN(c3ccnc(OCC4CC4)c3)C2)cc1 (stereo partly shown) [Example 1.53]	7.07
CC(=O)N[C@@H](C)c1ccc(OC2CCN(c3cccc(C(F)F)n3)C2)cc1 (stereo partly shown) [Example 1.64]	6.81
COc1c(N2CC[C@@H](Oc3ccc([C@H](C)NC(C)=O)cc3)C2)ccnc1N(C)C [Example 1.137]	6.20
CCCOc1cc(N2CCC(Oc3ccc([C@H](C)NC(C)=O)cc3)C2)c(F)cn1 (stereo partly shown) [Example 1.72]	7.15
CCOc1cc(N2CCC(Oc3ccc([C@H](C)NC(C)=O)cc3)C2)c(C)cn1 (stereo partly shown) [Example 1.24]	6.35
CC(=O)N[C@@H](C)c1ccc(OC2CCN(c3ncc(OCC4CC4)cc3C)C2)cc1 (stereo partly shown) [Example 1.41]	6.81
CC(=O)N[C@@H](C)c1ccc(O[C@@H]2CCN(c3ccnc(N(C)CC(F)(F)F)c3F)C2)cc1 [Example 1.112]	7.17
CCOc1cc(N2CC[C@@H](Oc3ccc([C@H](C)NC(=O)c4sc(NC(C)=O)nc4C)cc3)C2)ccn1 [Example 1.47]	6.92
CC(=O)N[C@@H](C)c1ccc(O[C@@H]2CCN(c3ccnc(N4CCC(F)(F)C4)c3F)C2)cc1 [Example 1.110]	7.64
COc1cc(N2CC[C@@H](Oc3ccc([C@H](C)NC(C)=O)cc3)C2)cnc1OCC1CC1 [Example 1.122]	5.57
CC(=O)N[C@@H](C)c1ccc(OC2CCN(c3cccc(C(C)(C)C)n3)C2)cc1 (stereo partly shown) [Example 1.59]	6.82
COc1c(N2CC[C@@H](Oc3ccc([C@H](C)NC(C)=O)cc3)C2)ccnc1N1CCCC1 [Example 1.136]	6.32
CC(=O)N[C@@H](C)c1ccc(OC2CCN(c3ccnc(OC(C)C)c3)C2)cc1 (stereo partly shown) [Example 1.3]	6.87
CC(=O)N[C@@H](C)c1ccc(OC2CCN(c3ccnc(OCC4CC4(F)F)c3)C2)cc1 (stereo partly shown) [Example 1.19]	7.27
CC(=O)N[C@@H](C)c1ccc(OC2CCN(c3ncc(OC(C)C)cc3F)C2)cc1 (stereo partly shown) [Example 1.22]	6.98
CCCOc1cnc(N2CCC(Oc3ccc([C@H](C)NC(C)=O)cc3)C2)c(Cl)c1 (stereo partly shown) [Example 1.71]	7.06
C[C@H](NC(=O)N(C)C)c1ccc(OC2CCN(c3ccc(OCC4CC4(F)F)cn3)C2)cc1 (stereo partly shown) [Example 1.54]	6.85
CC(=O)N[C@@H](C)c1ccc(O[C@@H]2CCN(c3ccnc(N4CCCC4)c3Cl)C2)cc1 [Example 1.148]	7.33
CC(=O)N[C@@H](C)c1ccc(O[C@@H]2CCN(c3ccnc(NCC(F)F)c3F)C2)cc1 [Example 1.116]	6.75
Cc1cccc(N2CC[C@@H](Oc3ccc([C@H](C)NC(=O)c4cncs4)cc3)C2)n1 [Example 1.85]	6.97
COCCNc1nccc(N2CC[C@@H](Oc3ccc([C@H](C)NC(C)=O)cc3)C2)c1F [Example 1.119]	5.88
CC(=O)N[C@@H](C)c1ccc(OC2CCN(c3cc(OCC4CC4(F)F)ncc3C)C2)cc1 (stereo partly shown) [Example 1.89]	6.56
CC(=O)N[C@@H](C)c1ccc(O[C@@H]2CCN(c3ccnc(NCC4CC4)c3Cl)C2)cc1 [Example 1.138]	7.59

Results, then the molecule that gave them:

pIC50	SMILES
6.28	CC(=O)N[C@@H](C)c1ccc(O[C@@H]2CCN(c3cccc(N4CCCOCC4)n3)C2)cc1 [Example 10.40]
7.14	C[C@H](NC(=O)N(C)C)c1ccc(OC2CCN(c3ccnc(OCC(F)F)c3F)C2)cc1 (stereo partly shown) [Example 5.9]
6.28	CC(=O)N[C@@H](C)c1ccc(O[C@@H]2CCN(c3ccnc(C(=O)N4CCc5c4ccc(F)c5F)c3)C2)cc1 [Example 8.5]
6.98	CO[C@@H]1CN(c2cccc(C(F)(F)F)n2)C[C@@H]1Oc1ccc([C@H](C)NC(C)=O)cc1 [Example 8.9]
7.16	C[C@H](NC(=O)c1cn[nH]c1)c1ccc(OC2CCN(c3ccc(OCC4CC4(F)F)cn3)C2)cc1 (stereo partly shown) [Example 2.34]
6.70	C[C@H](NC(=O)N1CCC1)c1ccc(OC2CCN(c3ccc(OCC4CC4(F)F)cn3)C2)cc1 (stereo partly shown) [Example 3.9]
7.24	CC(=O)N[C@@H](C)c1ccc(O[C@@H]2CCN(c3ccnc(NCC4(O)CCC4)c3Cl)C2)cc1 [Example 10.55]
6.69	C[C@H](NC(=O)C(C)(F)F)c1ccc(OC2CCN(c3cccc(C(F)(F)F)n3)C2)cc1 (stereo partly shown) [Example 2.63]
7.19	CC(C)Oc1cc(N2CCC(Oc3ccc([C@H](C)NC(=O)c4cn[nH]c4)cc3)C2)ccn1 (stereo partly shown) [Example 2.8]
6.00	C[C@H](NC(=O)c1ccnc(F)c1)c1ccc(OC2CCN(c3cccc(C(F)(F)F)n3)C2)cc1 (stereo partly shown) [Example 2.44]
6.84	CC(C)Oc1cc(N2CCC(Oc3ccc([C@H](C)NC(=O)c4ccns4)cc3)C2)ccn1 (stereo partly shown) [Example 2.6]
6.68	CC(=O)N[C@@H](C)c1ccc(O[C@@H]2CCN(c3cccc(N(C)CC4CC4)n3)C2)cc1 [Example 10.2]
6.85	CC(=O)N[C@@H](C)c1ccc(O[C@@H]2CCN(c3ccnc(OCc4cccc(F)c4)c3)C2)cc1 [Example 9.9]
6.59	C[C@H](NC(=O)c1cnc(N)o1)c1ccc(OC2CCN(c3ccc(OCC4CC4(F)F)cn3)C2)cc1 (stereo partly shown) [Example 2.57]
6.44	C[C@H](NC(=O)CC#N)c1ccc(OC2CCN(c3ccnc(OCC(F)F)c3)C2)cc1 (stereo partly shown) [Example 2.116]
6.25	C[C@H](NC(=O)C1CC1)c1ccc(OC2CCN(c3cccc(C(F)(F)F)n3)C2)cc1 (stereo partly shown) [Example 2.49]
6.35	COCCN(C)C(=O)N[C@@H](C)c1ccc(OC2CCN(c3ccc(OCC4CC4(F)F)cn3)C2)cc1 (stereo partly shown) [Example 3.7]
6.77	CC(=O)N[C@@H](C)c1ccc(O[C@@H]2CCN(c3cccc(N(C)C4CCCC4)n3)C2)cc1 [Example 10.29]
6.84	CC(C)Oc1cc(N2CCC(Oc3ccc([C@H](C)NC(=O)c4cnn(C)c4)cc3)C2)ccn1 (stereo partly shown) [Example 2.4]
7.12	CCNC(=O)N[C@@H](C)c1ccc(OC2CCN(c3ccnc(OCC4CC4)c3)C2)cc1 (stereo partly shown) [Example 3.4]
6.37	C[C@H](NC(=O)CCO)c1ccc(OC2CCN(c3cccc(C(F)(F)F)n3)C2)cc1 (stereo partly shown) [Example 2.55]

pIC50	SMILES
6.44	C[C@H](NC(=O)c1cnc(N)o1)c1ccc(OC2CCN(c3ccnc(OCC4CC4)c3)C2)cc1 (stereo partly shown) [Example 2.74]
6.56	C[C@H](NC(=O)C(C)(F)F)c1ccc(OC2CCN(c3ccc(OCC4CC4(F)F)cn3)C2)cc1 (stereo partly shown) [Example 2.35]
6.34	CCC(=O)N[C@@H](C)c1ccc(OC2CCN(c3ccnc(OC(C)C)c3)C2)cc1 (stereo partly shown) [Example 2.30]
7.22	C[C@H](NC(=O)c1cncs1)c1ccc(OC2CCN(c3ccnc(N4CCC(F)(F)C4)c3F)C2)cc1 (stereo partly shown) [Example 2.125]
6.40	C[C@H](NC(=O)C(F)(F)C(F)(F)F)c1ccc(O[C@@H]2CCN(c3cccc(C(F)(F)F)n3)C2)cc1 [Example 7.1, 2,2,3,3,3-Pentafluoro-N—((S)-1-(4-((R)-1-(6-(trifluoromethyl)pyridin-2-yl)pyrrolidin-3-yloxy)phenyl)ethyl)propanamide]
7.07	C[C@H](NC(=O)C1(C#N)CC1)c1ccc(OC2CCN(c3ccnc(OCC4CC4)c3)C2)cc1 (stereo partly shown) [Example 2.65]
7.21	CC(=O)N[C@@H](C)c1ccc(O[C@@H]2CCN(c3cccc(C(F)(F)F)n3)C2)cc1 [Example 8.1, N—((S)-1-(4-((R)-1-(6-(Trifluoromethyl)pyridin-2-yl)pyrrolidin-3-yloxy)phenyl)ethyl)acetamide]
6.89	C[C@H](NC(=O)c1cnn(C)c1)c1ccc(OC2CCN(c3cccc(C(F)(F)F)n3)C2)cc1 (stereo partly shown) [Example 2.36]
6.34	C[C@H](NC(=O)c1ccnc(F)c1)c1ccc(OC2CCN(c3cccc(C(F)(F)F)n3)C2)cc1 (stereo partly shown) [Example 2.54]
6.34	C[C@H](NC(=O)c1cncnc1)c1ccc(OC2CCN(c3ccnc(OCC4CC4)c3)C2)cc1 (stereo partly shown) [Example 2.79]
6.58	C[C@H](NC(=O)[C@@H](C)O)c1ccc(OC2CCN(c3ccnc(OCC4CC4)c3)C2)cc1 (stereo partly shown) [Example 2.68]
6.07	CC(=O)N[C@@H](C)c1ccc(O[C@@H]2CCN(c3cccc(N(C)CC(C)O)n3)C2)cc1 (stereo partly shown) [Example 10.35]
6.75	CC(=O)N[C@@H](C)c1ccc(O[C@@H]2CCN(c3ccnc(OCC(C)(C)O)c3Cl)C2)cc1 [Example 9.88]
6.91	CCN(CC)c1cccc(N2CC[C@@H](Oc3ccc([C@H](C)NC(C)=O)cc3)C2)n1 [Example 10.27]
6.85	CC(=O)N[C@@H](C)c1ccc(O[C@@H]2CCN(c3ccnc(OC4CCOCC4)c3)C2)cc1 [Example 9.22]
7.15	Cc1nocc1C(=O)N[C@@H](C)c1ccc(OC2CCN(c3ccnc(OC(C)C)c3)C2)cc1 (stereo partly shown) [Example 2.5]
6.17	CC(C)Oc1cc(N2CCC(Oc3ccc([C@H](C)NC(=O)c4ccno4)cc3)C2)ccn1 (stereo partly shown) [Example 2.10]
6.95	C[C@H](NC(=O)N1CCOCC1)c1ccc(OC2CCN(c3ccc(OCC4CC4(F)F)cn3)C2)cc1 (stereo partly shown) [Example 3.10]
6.48	CC(=O)N[C@@H](C)c1ccc(O[C@@H]2CCN(c3ccnc(OC(C)c4ccccc4)c3)C2)cc1 (stereo partly shown) [Example 9.19]
7.46	Cc1cc(C(=O)N[C@@H](C)c2ccc(OC3CCN(c4cccc(C(F)(F)F)n4)C3)cc2)no1 (stereo partly shown) [Example 2.61]
7.34	C[C@H](NC(=O)c1cnco1)c1ccc(OC2CCN(c3ccnc(OCC4CC4)c3)C2)cc1 (stereo partly shown) [Example 2.67]
